Test results: patent US20230121689A1, “CEPHALOSPORIN ANTIBACTERIAL COMPOUND AND PHARMACEUTICAL APPLICATION THEREOF” (priority 2020, published 2023)
In brackets after ≈: the same amount, converted by molar mass. Where two headings read alike, the source gives them in different places.

What was measured:
Assay type in all cases: cell-based
[1] = system: Carbapenem-resistant Acinetobacter baumannii (CRAB); assay: Test Example 1: antibacterial activity test (MIC)
Method: (§1) The test compounds were diluted in a gradient and used for an MIC assay on the test strains. The test compounds at an initial assay concentration of 32 μg/mL were diluted in a 2-fold gradient (11 concentration points in total), and two duplicate wells were set for each concentration. Additional wells without drug dosing were set as growth controls. The minimum inhibitory concentration (MIC) assay was performed with reference to the Clinical and Laboratory Standards Institute (CLSI) guidelines.
(§2) After the frozen strains were subcultured, a single colony was picked and re-suspended in normal saline or sterile water in a tube. The bacterial suspension was vortexed and adjusted to 0.5 McF using a spectrophotometer at the wavelength of 530 nm. The bacterial solution was taken by a pipette, added to a culture medium, diluted and mixed well, and seeded to a bacterial assay plate.
(§3) The 96-well plate was affixed with a disposable sealing film, shaken and mixed well, and visually observed using a plate reader. The minimum concentration of the compounds capable of inhibiting the growth of bacteria was defined as MIC as compared to the growth controls.

[2] = system: Carbapenem-resistant Enterobacteriaceae (CRE); assay: Test Example 1: antibacterial activity test (MIC)
Method: as §1, §2, §3

[3] = system: Carbapenem-resistant Pseudomonas aeruginosa (CRPA); assay: Test Example 1: antibacterial activity test (MIC)
Method: as §1, §2, §3

[4] = system: Carbapenem-resistant Acinetobacter baumannii (CRAB, Acinetobacter baumannii); assay: Test Example 2: antibacterial activity test (MIC); details: ID-CAMHB, read-out: ID-CAMHB, MIC
Method: (§4) 1. The test compounds were dissolved in sterile normal saline, vortexed for uniformly mixing, and diluted in a 2-fold dilution with the sterile normal saline (11 concentration points in total). The test concentration range was 32-0.031 μg/mL, and two duplicate wells were set for each concentration. Additional wells without drug dosing were set as growth controls. 2. 4 μL of the diluent was added to 196 μL of the bacterial suspension in a 96-well plate (the bacterial count in the bacterial suspension was 2-8×10^5 colony forming units/mL). 3.
(§5) The minimum inhibitory concentration (MIC) assay was performed with reference to the Clinical and Laboratory Standards Institute (CLSI) guidelines.

[5] = system: Carbapenem-resistant Enterobacteriaceae (CRE, Klebsiella pneumoniae); assay: Test Example 2: antibacterial activity test (MIC); details: ID-CAMHB, read-out: ID-CAMHB, MIC
Method: as §4, §5

[6] = system: Carbapenem-resistant Pseudomonas aeruginosa (CRPA, Pseudomonas aeruginosa); assay: Test Example 2: antibacterial activity test (MIC); details: ID-CAMHB, read-out: ID-CAMHB, MIC
Method: as §4, §5

[7] = system: Control Strain Pseudomonas aeruginosa ATCC 27853; assay: Test Example 2: antibacterial activity test (MIC); details: ATCC27853, ID-CAMHB, ATCC 27853, read-out: ID-CAMHB, MIC
Method: as §4, §5

[8] = system: Control strain Escherichia coli ATCC 25922; assay: Test Example 2: antibacterial activity test (MIC); details: ATCC25922, ID-CAMHB, ATCC 25922, read-out: ID-CAMHB, MIC
Method: as §4, §5

CC(C)(O/N=C(\C(=O)N[C@@H]1C(=O)N2C(C(=O)[O-])=C(C[N+]3(CC4(NC(=O)c5ccc(O)c(O)c5Cl)CC4)CCCC3)CS[C@H]12)c1csc(N)n1)C(=O)O [Compound 2]
MIC ([1]; CRAB strain No. 100085): 0.5 µg/mL (≈ 0.642 µM) | MIC ([1]; CRAB strain No. 100333): 2 µg/mL (≈ 2.57 µM) | MIC ([1]; CRAB strain No. 110440): 3 µg/mL (≈ 3.85 µM) | MIC ([1]; CRAB strain No. 110477): 2 µg/mL (≈ 2.57 µM) | MIC ([1]; CRAB strain No. 110517): 0.5 µg/mL (≈ 0.642 µM) | MIC ([2]; CRE strain No. 100109): 1 µg/mL (≈ 1.28 µM) | MIC ([2]; CRE strain No. 100186): 1.5 µg/mL (≈ 1.93 µM) | MIC ([2]; CRE strain No. 110502): 6 µg/mL (≈ 7.71 µM) | MIC ([2]; CRE strain No. 110525): 2 µg/mL (≈ 2.57 µM) | MIC ([2]; CRE strain No. 311277): 1.5 µg/mL (≈ 1.93 µM) | MIC ([3]; CRPA strain No. 100110): 0.031 µg/mL (≈ 0.0398 µM) | MIC ([3]; CRPA strain No. 110163): 0.5 µg/mL (≈ 0.642 µM) | MIC ([3]; CRPA strain No. 110224): 0.75 µg/mL (≈ 0.964 µM) | MIC ([3]; CRPA strain No. 110358): 1 µg/mL (≈ 1.28 µM) | MIC ([3]; CRPA strain No. 110390): 0.5 µg/mL (≈ 0.642 µM) | MIC ([4]; FDA-CDC AR-BANK #0036 (strB, OXA-65, OXA-24, strA, sul2)): 0.5 µg/mL (≈ 0.642 µM) | MIC ([4]; FDA-CDC AR-BANK #0052 (OXA-58, OXA-100, sul2)): 0.0625 µg/mL (≈ 0.0803 µM) | MIC ([4]; FDA-CDC AR-BANK #0063 (OXA-23, OXA-65, OXA-24, sul2)): 16 µg/mL (≈ 20.6 µM) | MIC ([4]; FDA-CDC AR-BANK #0070 (OXA-58, OXA-100, sul2)): 0.0625 µg/mL (≈ 0.0803 µM) | MIC ([4]; FDA-CDC AR-BANK #0101 (strB, OXA-65, OXA-24, strA, sul2)): 0.5 µg/mL (≈ 0.642 µM) | MIC ([5]; FDA-CDC AR-BANK #0361 (TEM-1; SHV-12; KPC-2)): 1 µg/mL (≈ 1.28 µM) | MIC ([5]; FDA-CDC AR-BANK #0362 (TEM-1; SHV-11; KPC-2)): 0.5 µg/mL (≈ 0.642 µM) | MIC ([5]; FDA-CDC AR-BANK #0363 (TEM-1; SHV-12; KPC-2)): 0.5 µg/mL (≈ 0.642 µM) | MIC ([5]; FDA-CDC AR-BANK #0438 (aph(3′)-Ia, dfrA12, KPC-3, OmpK35, oqxA, oqxB, SHV-11)): 1 µg/mL (≈ 1.28 µM) | MIC ([5]; FDA-CDC AR-BANK #0453 (KPC-3, OmpK35, oqxA, oqxB, SHV-11, TEM-1B)): 2 µg/mL (≈ 2.57 µM) | MIC ([6]; FDA-CDC AR-BANK #0439 (aac(6′)-Il, aadA1b, BCR1, IMP-18, OXA-50)): 0.5 µg/mL (≈ 0.642 µM) | MIC ([6]; FDA-CDC AR-BANK #0441 (KPC-2)): 2 µg/mL (≈ 2.57 µM) | MIC ([6]; FDA-CDC AR-BANK #0444 (aac(6′)-Il, dfrB5, OXA-4, tet(G), VIM-2)): 4 µg/mL (≈ 5.14 µM) | MIC ([6]; FDA-CDC AR-BANK #0457 (aadA6, VIM-2)): 0.125 µg/mL (≈ 0.161 µM) | MIC [7]: 0.0625 µg/mL (≈ 0.0803 µM) | MIC [8]: 0.125 µg/mL (≈ 0.161 µM)
